According to ChEMBL document CHEMBL1138833, “Enantioselective synthesis and biological activity of (3S,4R)- and (3S,4S)-3-hydroxy-4-hydroxymethyl- 4-butanolides in relation to PGE2” (J Med Chem, 2004):

How the values were obtained:
[1] = biological target: Prostaglandin E2 receptor EP2 subtype (Homo sapiens) (UniProt P43116); assay: The percentage decrease in the binding of [3H]PGE2, in the presence of 125 uM of compound
[2] = biological target: Prostaglandin E2 receptor EP2 subtype (Homo sapiens) (UniProt P43116); assay: The percentage decrease in the binding of [3H]PGE2, in the presence of 1000 uM of compound

Chain of Prostaglandin E2 receptor EP2 subtype (Homo sapiens) (P43116 whole entry): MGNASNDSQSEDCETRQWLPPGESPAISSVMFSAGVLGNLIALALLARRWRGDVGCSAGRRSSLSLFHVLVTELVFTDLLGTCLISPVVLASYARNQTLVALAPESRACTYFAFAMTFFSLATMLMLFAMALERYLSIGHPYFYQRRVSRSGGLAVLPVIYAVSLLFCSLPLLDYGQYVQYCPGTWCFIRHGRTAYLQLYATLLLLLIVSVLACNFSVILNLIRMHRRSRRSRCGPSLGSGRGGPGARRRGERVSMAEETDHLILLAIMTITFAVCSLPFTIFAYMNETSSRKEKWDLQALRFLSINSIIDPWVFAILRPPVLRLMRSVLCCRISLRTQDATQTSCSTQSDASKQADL

Decrease [1]	Decrease [2]	Structure (SMILES)
78%	33%	O=C1C[C@H](O)[C@@H](CO)O1
–	73%	O=C1C[C@H](O)[C@H](CO)O1
